Calls of active or inactive are those of the source. The rule behind the calls is not given here.
How the values were obtained:
[1] = molecular target: T1, Ubiquitin carboxyl-terminal hydrolase 28 (Homo sapiens, UniProt Q96RU2); assay: Inhibition of USP28 (149 to 703 residues) (unknown origin) expressed in Escherichia coli BL21 (DE3) using Ub-AMC as substrate by fluorescence based analysis
T1 sequence (Q96RU2 whole entry): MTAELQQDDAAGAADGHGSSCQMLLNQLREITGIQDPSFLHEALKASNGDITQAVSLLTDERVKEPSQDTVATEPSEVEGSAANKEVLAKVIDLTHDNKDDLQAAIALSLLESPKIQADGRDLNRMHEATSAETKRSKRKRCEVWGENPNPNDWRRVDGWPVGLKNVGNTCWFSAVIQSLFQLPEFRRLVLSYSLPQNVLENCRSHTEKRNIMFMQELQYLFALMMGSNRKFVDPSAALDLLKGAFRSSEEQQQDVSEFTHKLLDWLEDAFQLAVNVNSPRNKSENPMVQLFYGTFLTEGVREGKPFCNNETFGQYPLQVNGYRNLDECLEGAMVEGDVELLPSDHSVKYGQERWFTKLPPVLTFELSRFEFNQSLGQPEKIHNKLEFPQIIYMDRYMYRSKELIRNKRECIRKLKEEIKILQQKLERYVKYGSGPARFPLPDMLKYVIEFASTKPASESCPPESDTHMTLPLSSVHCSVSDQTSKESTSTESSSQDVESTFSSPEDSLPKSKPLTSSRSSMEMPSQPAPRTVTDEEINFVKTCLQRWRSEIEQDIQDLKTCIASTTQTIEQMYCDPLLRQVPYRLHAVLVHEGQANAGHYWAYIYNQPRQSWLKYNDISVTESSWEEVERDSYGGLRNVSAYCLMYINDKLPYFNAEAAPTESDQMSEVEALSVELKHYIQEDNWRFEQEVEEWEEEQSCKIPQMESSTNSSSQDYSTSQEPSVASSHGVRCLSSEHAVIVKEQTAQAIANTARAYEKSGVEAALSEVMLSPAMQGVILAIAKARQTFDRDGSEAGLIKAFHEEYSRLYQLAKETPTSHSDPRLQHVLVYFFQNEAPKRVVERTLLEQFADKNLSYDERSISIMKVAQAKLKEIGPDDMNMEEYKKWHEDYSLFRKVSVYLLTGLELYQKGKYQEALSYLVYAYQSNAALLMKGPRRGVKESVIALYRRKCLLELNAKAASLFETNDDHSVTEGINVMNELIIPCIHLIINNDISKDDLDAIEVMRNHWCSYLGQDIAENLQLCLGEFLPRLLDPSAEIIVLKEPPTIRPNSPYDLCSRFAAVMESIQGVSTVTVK

[2] = molecular target: T2, Ubiquitin carboxyl-terminal hydrolase 25 (Homo sapiens) (UniProt Q9UHP3); assay: Inhibition of USP25 in human LS174T cells assessed as downregulation of Tankyrase 1/2 protein level; type: cell-based
T2 sequence (whole entry): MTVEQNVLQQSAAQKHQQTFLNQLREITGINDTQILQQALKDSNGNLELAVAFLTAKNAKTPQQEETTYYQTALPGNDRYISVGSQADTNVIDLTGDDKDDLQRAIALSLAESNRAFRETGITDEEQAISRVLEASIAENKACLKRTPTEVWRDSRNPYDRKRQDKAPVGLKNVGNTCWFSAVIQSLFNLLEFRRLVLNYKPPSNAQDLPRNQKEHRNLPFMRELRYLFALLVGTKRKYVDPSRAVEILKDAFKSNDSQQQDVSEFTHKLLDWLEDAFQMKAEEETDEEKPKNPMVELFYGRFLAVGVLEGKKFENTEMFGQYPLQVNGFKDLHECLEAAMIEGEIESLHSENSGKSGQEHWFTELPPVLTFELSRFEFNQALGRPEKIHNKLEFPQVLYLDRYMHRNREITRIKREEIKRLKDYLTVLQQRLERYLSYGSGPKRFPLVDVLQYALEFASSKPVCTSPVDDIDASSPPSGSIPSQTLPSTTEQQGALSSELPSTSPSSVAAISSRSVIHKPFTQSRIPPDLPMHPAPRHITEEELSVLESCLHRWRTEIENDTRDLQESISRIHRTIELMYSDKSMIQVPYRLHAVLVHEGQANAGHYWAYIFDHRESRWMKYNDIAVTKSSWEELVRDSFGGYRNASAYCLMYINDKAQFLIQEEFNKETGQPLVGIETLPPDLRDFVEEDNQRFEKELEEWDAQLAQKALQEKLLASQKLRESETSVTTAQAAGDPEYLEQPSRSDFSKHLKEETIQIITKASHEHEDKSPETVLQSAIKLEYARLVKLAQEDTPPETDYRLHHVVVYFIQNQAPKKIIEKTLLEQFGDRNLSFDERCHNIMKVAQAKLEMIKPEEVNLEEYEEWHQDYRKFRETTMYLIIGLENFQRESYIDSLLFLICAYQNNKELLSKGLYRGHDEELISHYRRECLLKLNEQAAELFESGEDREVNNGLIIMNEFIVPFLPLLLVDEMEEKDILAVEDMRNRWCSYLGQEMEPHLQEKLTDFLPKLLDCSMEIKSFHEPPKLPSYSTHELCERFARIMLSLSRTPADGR

HCT-116 [3] = assay: Inhibition of colony formation in human HCT-116 cells at 15 uM by crystal violet staining assay; type: functional, cell-based
HCT-116 [4] = assay: Antiproliferative activity against human HCT-116 cells assessed as effect on Bcl-2 protein level at 30 to 100 uM incubated for 1 day by western blotting analysis; type: functional, cell-based; conditions: dose 30-100 µM
LS174T [5] = assay: Inhibition of colony formation in human LS174T cells at 12.5 uM by crystal violet staining assay; type: functional, cell-based
LS174T [6] = assay: Inhibition of colony formation in human LS174T cells at 10 uM by crystal violet staining assay; type: functional, cell-based
HCT-116 [7] = assay: Antiproliferative activity against human HCT-116 cells assessed as effect on Bcl-2 protein level at 30 to 80 uM incubated for 1 day by western blotting analysis; type: functional, cell-based; conditions: dose 30-80 µM
HCT-116 [8] = assay: Inhibition of colony formation in human HCT-116 cells at 17.5 uM by crystal violet staining assay; type: functional, cell-based
LS174T [9] = assay: Inhibition of colony formation in human LS174T cells at 15 uM by crystal violet staining assay; type: functional, cell-based

| SMILES | IC50 [1] | inhibition [2] | inhibition (HCT-116 [3]) | Activity (HCT-116 [4]) | inhibition (LS174T [5]) | inhibition (LS174T [6]) | Activity (HCT-116 [7]) | inhibition (HCT-116 [8]) | inhibition (LS174T [9]) |
| --- | --- | --- | --- | --- | --- | --- | --- | --- | --- |
| CS(=O)(=O)c1ccc(C(=O)Nc2ccc(Cl)c(-c3ccc4c(c3)CNC4)c2)c(Cl)c1 | 40 nM | Active | Active | inactive | Active |  |  |  |  |
| CS(=O)(=O)c1ccc(C(=O)Nc2ccc(Cl)c(-c3ccc4c(c3)CCNC4)c2)c(Cl)c1 | 100 nM |  | Active | inactive |  | Active |  |  |  |
| CS(=O)(=O)c1ccc(C(=O)Nc2ccc(Cl)c(-c3ccc(C4(N)CC4)cc3)c2)c(Cl)c1 | 300 nM |  |  |  |  |  | inactive | Active | Active |

From ChEMBL document CHEMBL5325426, “Structure-based discovery of potent USP28 inhibitors derived from Vismodegib” (Eur J Med Chem, 2023)
